# From patent US11524938B2, “Aromatic sulfonamide derivatives” (Bayer Pharma Aktiengesellschaft, priority 2016, dated 2022)
# Where “and” joins values, the source holds several entries; their conditions need not be identical. Identical values can stand only once.
# Target: T1, endogenous P2X4 channels (Homo sapiens, UniProt Q99571)
# T1 construct: measure calcium influx through endogenous P2X4 channels into primary human monocytes
# T1 sequence (Q99571 1-388): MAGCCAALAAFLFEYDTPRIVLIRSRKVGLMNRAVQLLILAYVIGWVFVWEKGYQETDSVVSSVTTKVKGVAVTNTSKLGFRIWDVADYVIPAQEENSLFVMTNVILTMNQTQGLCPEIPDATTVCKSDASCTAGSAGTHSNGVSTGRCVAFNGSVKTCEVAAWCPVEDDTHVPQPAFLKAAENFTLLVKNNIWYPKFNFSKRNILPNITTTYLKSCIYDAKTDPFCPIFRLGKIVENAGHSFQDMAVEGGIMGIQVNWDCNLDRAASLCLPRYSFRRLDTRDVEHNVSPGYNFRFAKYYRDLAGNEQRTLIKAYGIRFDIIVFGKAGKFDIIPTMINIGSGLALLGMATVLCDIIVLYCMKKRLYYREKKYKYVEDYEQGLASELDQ
# Test: Human Monocyte P2X4 Assay (FLIPR)
# Assay type: cell-based
# Conditions: primary human monocytes, 3 μM BzATP, one value per donor
# Procedure: The principle of the assay is to measure calcium influx through endogenous P2X4 channels into primary human monocytes, following activation by 2′,3′-O-(4-benzoyl-benzoyl)-ATP (Bz-ATP). Intracellular calcium concentration changes were measured with a Flipr® (Molecular Devices) device using a calcium sensitive dye (Fluo-8). In primary monocytes P2X4 is located at the lysosome membrane, therefore exocytosis has to be triggered to expose P2X4 at the cellular membrane.
# Human peripheral blood mononuclear cells (PBMCs) from anticoagulated blood (blood cells, BC) were isolated via density gradient centrifugation. Whole blood was diluted 1:3 with PBS. Samples of 30 mL were layered carefully on top of 15 mL Biocoll (BIOCHROM) in 50 mL centrifuge tubes (Falcon). Tubes were centrifuged at 914×g for 25 min at RT without brake. The PBMC layer was removed with a 10 mL pipette and transferred into tubes with ice-cold PBS in a total volume of 50 mL. Cells were washed twice by pelleting at 300×g at 4° C., for 10 min and for 5 min respectively. PBMCs were re-suspended in 10 mL medium (X-vivo, Biozym Scientific) and counted in a Neubauer chamber.
# Monocytes were isolated by negative selection using the Monocyte isolation kit II from Miltenyi (#130-091-153) according to the instructions. Isolation should be done fast and cells and solutions should be kept on ice at any time. PBMCs in batches of 10 exp8 cells were pelleted (300×g, 10 min) and re-suspended with 300 μL MACS buffer in a 50 mL Falcon tube. FcR Blocking reagent (100 μl) and Biotin-Ab (100 μl) were added, mixed and incubated on ice for 10 min. MACS buffer (300 μL) and anti-Biotin Micro-beads (100 μL) were added, mixed and incubated on ice for 15 min. Cells were washed by pelleting (300×g for 10 min) and re-suspended in 500 μL MACS buffer. For each batch one separation column was placed in the MACS separator and rinsed with 3 mL MACS buffer. The cell suspension was added to the column, followed by 3×3 mL MACS buffer for washing, and the eluent containing the monocytes was collected. Cells were pelleted (300×g for 10 min), re-suspended in X-vivo medium and counted. Monocytes were seeded into fibronectin-coated micro-plates (384-well, black, flat transparent bottom; Corning #3848) at a density of 30,000 cells/well in 50 μL, and cultivated over night (37° C., 5% CO2).
# Test substances were dissolved in 100% DMSO at a stock concentration of 10 mM and stored at −20° C. in aliquots. Serial dilutions (2×) were prepared in DMSO and diluted 500× with assay buffer to generate the antagonist plate. In the Flipr measurement, 10 μL per well were transferred (4× dilution) and a final top concentrations of 5 μM and 0.05% DMSO were obtained in the assay. Agonist BzATP was stored at 10 mM in aliquots and diluted to an intermediate concentration of 15 μM to generate the agonist plate. In the Flipr measurement, 10 μL per well were transferred (5× dilution) so that a final assay concentration of 3 μM was obtained.
# For the experiment, the medium of the cell plate was discarded manually and 70 μL/well loading buffer was added and incubated for 1 h (37° C., 5% CO2). Loading buffer contained HBSS (w/o calcium/magnesium), 10 mM Hepes pH 7.4, 5 μM Fluo-8 (AM) (Tebu-bio) and 50 mM methylamine (Sigma) to trigger exocytosis. Loading buffer was discarded manually and 30 μL/well low-calcium assay buffer (5 mM KCl, 145 mM NaCl, 0.5 mM CaCl2, 13 mM glucose, 10 mM Hepes pH 7.4) was added. The antagonist plate was transferred (10 μL/well) and after 15 min at RT the agonist plate (10 μL/well) was transferred.
# Agonist addition was recorded for 240 seconds after a 10 second baseline. For analysis, a baseline correction was applied, and the maximum of the curve was extracted. Data were normalized towards 0% inhibition (signal at 3 μM BzATP) and 100% inhibition (absence of BzATP stimulation) and fitted with a four-parameter sigmoidal inhibition curve using Prism GraphPad to obtain IC50 values.
smiles,measurement,value
"N#Cc1cnn(-c2ccc(NC(=O)Cc3ccccc3Cl)cc2S(N)(=O)=O)c1 [Example 39, 2-(2-Chlorophenyl)-N-[4-(4-cyano-1H-pyrazol-1-yl)-3-sulfamoylphenyl]acetamide]",Human P2X4 Monocytes (FLIPR Assay) Efficacy for different donors,81% and 78%
